We go through 9 compounds from patent publication US9682965B2, “Fumagillol heterocyclic compounds and methods of making and using same” (Zafgen, Inc., priority 2015, dated 2017).

Structures can show the parent of a compound that is named as a salt.

For the assay, the system named is Diet Induced Obese (DIO) C57BL/6 mice. The assay can be described thus: 10 day DIO mouse model (body weight, food intake, hematology, blood chemistry). The assay is classed as in vivo. Conditions: 240 h; DIO mouse, 0.3 mpk sc, once a day for 10 days; read-out: DIO Mouse 10-day weight loss vs vehicle. The text has this:
The objective of this study design was to investigate the efficacy of disclosed compounds in a 10 day DIO mouse model. Effects on body weight, food intake, hematology and blood chemistry were the primary readouts of this study design. […] Mice were fed Research Diets D12492 (60% Kcal fat, 20% Kcal carbohydrate and 20% protein) and provided water ad libitum. DIO mice were received and housed in the facility for approximately two weeks prior to the start of test article administration. On Day −4 or −3, mice were randomized into study groups based on body weight and body weights were continued to be recorded daily for the duration of the study. Daily food intake was assessed starting on Study Day −2 by weighing of the food with hopper together to avoid loss of food in transfer.
Compounds were formulated into a 100% DMSO stock (at 9 mg/mL) prior to the start, and further diluted into the target working concentration using the vehicle of 10% DMSO in water. Prior to test article administration, starting on Day −3 a dosing acclimation occured with all animals receiving a subcutaneous injection of vehicle (10% DMSO) only for 3 days. Starting on Day 1, test compounds or vehicle were administered based on individual body weight, subcutaneously, once a day for 10 days. All mice were sacrificed on Day 11, 24 hours following the final dosing on Day 10. After sacrifice, whole blood was collected and analyzed for hematology and blood chemistry parameters.
Compounds were tested vs. vehicle at various doses (1.0, 0.5, 0.3, 0.1, 0.03 mpk sc (mg per kg animal weight delivered subcutaneously), and the results are shown in Table 2 below.
In the case of `CO[C@@H]1[C@H](OC(=O)N2CC(CCN3CCC(C#N)(C#N)CC3)C2)CC[C@]2(CO2)[C@H]1[C@@]1(C)O[C@@H]1CC=C(C)C` [Example 36, (3R,4S,5S,6R)-5-methoxy-4-((2R,3R)-2-methyl-3-(3-methylbut-2-enyl)oxiran-2-yl)-1-oxaspiro[2.5]octan-6-yl 3-(2-(4,4-dicyanopiperidin-1-yl)ethyl)azetidine-1-carboxylate], the inhibition in vivo at 0.3 mg/kg was found to be 11.2%. Then `CCN(CC)C[C@H]1CCN(C(=O)O[C@@H]2CC[C@]3(CO3)[C@@H]([C@@]3(C)O[C@@H]3CC=C(C)C)[C@@H]2OC)C1` [Example 38, (R)-((3R,4S,5S,6R)-5-methoxy-4-((2R,3R)-2-methyl-3-(3-methylbut-2-enyl)oxiran-2-yl)-1-oxaspiro[2.5]octan-6-yl) 3-((diethylamino)methyl)pyrrolidine-1-carboxylate formate], with 6.7%; and `CO[C@@H]1[C@H](OC(=O)N2CC(CCN3CCOCC3=O)C2)CC[C@]2(CO2)[C@H]1[C@@]1(C)O[C@@H]1CC=C(C)C` [Example 39, (3R,4S,5S,6R)-5-methoxy-4-((2R,3R)-2-methyl-3-(3-methylbut-2-enyl)oxiran-2-yl)-1-oxaspiro[2.5]octan-6-yl 3-(2-(3-oxomorpholino)ethyl)azetidine-1-carboxylate], with 1.7%. Then `CO[C@@H]1[C@H](OC(=O)N2CC[C@H]2CN2CCCC2)CC[C@]2(CO2)[C@H]1[C@@]1(C)O[C@@H]1CC=C(C)C` [Example 41, (S)-((3R,4S,5S,6R)-5-methoxy-4-((2R,3R)-2-methyl-3-(3-methylbut-2-enyl)oxiran-2-yl)-1-oxaspiro[2.5]octan-6-yl) 2-(pyrrolidin-1-ylmethyl)azetidine-1-carboxylate formate], with 4.4%. In the case of `CO[C@@H]1[C@H](OC(=O)N2CC[C@@H]2CN2CCCC2)CC[C@]2(CO2)[C@H]1[C@@]1(C)O[C@@H]1CC=C(C)C` [Example 42, (R)-((3R,4S,5S,6R)-5-methoxy-4-((2R,3R)-2-methyl-3-(3-methylbut-2-enyl)oxiran-2-yl)-1-oxaspiro[2.5]octan-6-yl) 2-(pyrrolidin-1-ylmethyl)azetidine-1-carboxylate formate], the inhibition in vivo at 0.3 mg/kg was 5.3%. Then `CCN(CC)CC1CN(C(=O)O[C@@H]2CC[C@]3(CO3)[C@@H]([C@@]3(C)O[C@@H]3CC=C(C)C)[C@@H]2OC)CCO1` (stereo partly drawn) [Example 44, (3R,4S,5S,6R)-5-methoxy-4-((2R,3R)-2-methyl-3-(3-methylbut-2-enyl)oxiran-2-yl)-1-oxaspiro[2.5]octan-6-yl 2-((diethylamino)methyl)morpholine-4-carboxylate formate], with 2.1%; and `CO[C@@H]1[C@H](OC(=O)N2CC(CCN3CC[C@H](O)C3)C2)CC[C@]2(CO2)[C@H]1[C@@]1(C)O[C@@H]1CC=C(C)C` [Example 46, (3R,4S,5S,6R)-5-methoxy-4-((2R,3R)-2-methyl-3-(3-methylbut-2-enyl)oxiran-2-yl)-1-oxaspiro[2.5]octan-6-yl 3-(2-((S)-3-hydroxypyrrolidin-1-yl)ethyl)azetidine-1-carboxylate formate], with 5.2%; and `CO[C@@H]1[C@H](OC(=O)N2CC(CCN3CC[C@@H](O)C3)C2)CC[C@]2(CO2)[C@H]1[C@@]1(C)O[C@@H]1CC=C(C)C` [Example 47, (3R,4S,5S,6R)-5-methoxy-4-((2R,3R)-2-methyl-3-(3-methylbut-2-enyl)oxiran-2-yl)-1-oxaspiro[2.5]octan-6-yl 3-(2-((R)-3-hydroxypyrrolidin-1-yl)ethyl)azetidine-1-carboxylate], with 5.6%. As for `CCN(CC)CC[C@H]1CCCN1C(=O)O[C@@H]1CC[C@]2(CO2)[C@@H]([C@@]2(C)O[C@@H]2CC=C(C)C)[C@@H]1OC` [Example 50, (R)-((3R,4S,5S,6R)-5-methoxy-4-((2R,3R)-2-methyl-3-(3-methylbut-2-enyl)oxiran-2-yl)-1-oxaspiro[2.5]octan-6-yl) 2-(2-(diethylamino)ethyl)pyrrolidine-1-carboxylate formate], the figure is 2.6%.
